Measurements reported in patent publication US20070265451A1, “Process for the preparation of oxazolidinones and method of use thereof” (Board of Trustees of Michigan State University, priority 2001, published 2007).
≈ marks a conversion by molar mass, not a printed value.

Tests used:
Assay type in all cases: cell-based
[1] = test system: Enterococcus faecalis 29212; assay: Broth microdilution MIC, Enterococcus faecalis ATCC 29212; settings: Enterococcus faecalis; for MIC: ATCC29212, Table 2, read-out: MIC(90-100) EF-ATCC 29212; for MIC90: ATCC29213, Table 1, EF, strain printed ATCC 29213, read-out: MIC90-100 EF ATCC 29213
[2] = test system: Staphylococcus aureus 29213; assay: Broth microdilution MIC, Staphylococcus aureus ATCC 29213; settings: Staphylococcus aureus; for MIC: ATCC29213, Table 2, read-out: MIC(90-100) SA-ATCC 29213; for MIC90: ATCC29212, Table 1, SA, strain ATCC 29212, read-out: MIC90-100 SA ATCC 29212
Source text: (§1) See, NCCLS document M7-A5. Methods for Dilution Antimicrobial Susceptibility Tests for Bacteria That Grow Aerobically; Approved Standard-Fifth Edition. Volume 20, Number 2. January 2000, (ISBN 1-56238-394-9) and Lorian V. Antibiotics. Laboratory Medicine. 4th ed. Baltimore: Williams and Wilkins, pp. 52-111 (1996). For subsequent testing, the following strains have been used: Staphylococcus aureus NRS4 (992; HIP5836; New Jersey) (Smith et al., New Engl. J. Med. 340: 493-501 (1999); Tenover et al., J. Clin. Microbiol. 36: 1020-1027 (1998)), Staphylococcus aureus NRS3 (963sm; HIP5827; Michigan) (Smith et al., ibid.; Tenover et al., ibid.), Staphylococcus aureus NRS103 (Becker) (Karakawa and Vann, Sem. Infect. Dis. 4: 285 (1982), Staphylococcus aureus NRS102 (Reynolds) Karakawa and Vann, ibid; McMurray et al., JID 162: 759-762 (1990)), Staphylococcus epidermidis NRS101 (ATCC 35984), Streptococcus pneumoniae (ATCC 49619), Enterococcus faecalis (ATCC 51299), and Staphylococcus aureus (ATCC 43300.
(§2) Stock cultures of these strains were obtained by seeding colonies from overnight streak plates (Tryptic Soy Agar II (TSAII) and 5% sheep's blood (SB) agar plates: Becton Dickinson, CA#2211261) into sterile Mueller-Hinton Broth (MHB)(Becton Dickinson, CA#211443) and growing the suspensions to mid-late log phase in 13 mL screw-cap tubes. Glycerol (Sigma, CA#G-6279) was sterilized by autoclaving for 15 minutes at 121° C. in 6 mL volumes, and then stored at 2-8° C. This was diluted to 20% in dH2O, and then added 1:1 (250 μL:250 μL, 10% final glycerol concentration) to the logarithmically growing bacterial suspension of each strain. Tubes were frozen and stored at −70° C. Purity of the stock cultures was tested by thawing one tube of each strain in a water bath at 37° C. and plating them on TSAII with 5% SB. Plates were incubated overnight at 37° C. and colonies were examined for morphology. Growth curves and approximate CFU/mL were also obtained.
(§3) High purity substituted oxazolidinones prepared according to the method of the present invention and a ZYVOX standard (ZYVOX is a trade name for linezolid available from Pharmacia Corporation) were provided by Synthon Corporation, Monmouth Junction, N.J. Compounds were dissolved at 10 mg/mL in DMSO, as after a dilution of approx. 39.0 to reach the desired final starting concentration of 256 ug/ml, the concentration of DMSO is approximately 2.5%. Compounds were then stored at room temperature (25° C.) in the dark.
(§4) Antimicrobial susceptibility screening was as follows. All compounds were initially screened for activity in duplicate at 256 μg/mL (2.5% DMSO), including ZYVOX, the positive control for antimicrobial activity. A single well of bacterially inoculated 2.5% DMSO served as a positive control for bacterial growth, while a well of DMSO inoculated with of 50 μL of sterile 0.9% saline served as a negative growth control. Controls were prepared on every microplate, so that 46 was the maximum number of compounds that were screened per plate. Broth was pipetted into sterile microcentrifuge tubes, to which the compounds were then added (1:19.53 dilution or 2× final concentration). Each tube was vortexed, and 50 μL was immediately transferred to the microplate wells for each strain. Solubility was assessed by visual observation. MB (medium broth solubility) was recorded if the solution appeared only slightly cloudy. LB (low broth solubility) was recorded if the solution was extremely cloudy, and especially if larger, clumpy precipitates formed. Bacteria were grown as described above, although absorbance was measured at 650 nm and bacteria were diluted to an initial OD of 0.12-0.15. Bacteria were then further diluted 1:100 with 0.9% sterile saline. Within 15 minutes of this final dilution, 50 μL of this suspension was added to each well for a final volume of […], and a final bacterial concentration of 1×10^5 CFU/mL (except for the negative control well). Plates were grown as above and all observations were recorded. […]

[3] = test system: Megakaryocytic bone marrow cells; assay: Bone marrow cell growth inhibition, megakaryocytic
Source text: (§5) In general, many of the substituted oxazolidinones were as effective as ZYVOX.

[4] = test system: Erythroid bone marrow cells; assay: Bone marrow cell growth inhibition, erythroid
Source text: as §5

[5] = test system: Staphylococcus aureus (ATCC 43300); assay: Broth microdilution MIC, MR SA ATCC 43300; settings: ATCC43300, methicillin resistant SA, read-out: MIC90-100 MR SA ATCC 43300
Source text: as §1, §2, §3, §4

[6] = test system: Staphylococcus aureus NRS4 (992; HIP5836; New Jersey); assay: Broth microdilution MIC, MR SA New Jersey; settings: Staphylococcus aureus, NRS4, methicillin resistant SA, strain New Jersey; read-out: MIC90-100 MR SA New Jersey
Source text: as §1, §2, §3, §4

[7] = test system: Staphylococcus aureus NRS3 (963sm; HIP5827; Michigan); assay: Broth microdilution MIC, MR SA Michigan; settings: Staphylococcus aureus, NRS3, methicillin resistant SA, strain Michigan; read-out: MIC90-100 MR SA Michigan
Source text: as §1, §2, §3, §4

[8] = test system: Myeloid bone marrow cells; assay: Bone marrow cell growth inhibition, myeloid
Source text: as §5

[9] = test system: Enterococcus faecalis (ATCC 51299); assay: Broth microdilution MIC, Enterococcus faecalis ATCC 51299; settings: ATCC51299, vancomycin sensitive EF, ATCC 51299, read-out: MIC90-100 VS EF ATCC 51299
Source text: as §1, §2, §3, §4

[10] = test system: Staphylococcus aureus NRS103 (Becker); assay: Broth microdilution MIC, Ref SA Becker; settings: strain Becker, read-out: MIC90-100 Ref SA Becker
Source text: as §1, §2, §3, §4

[11] = test system: Staphylococcus aureus NRS102 (Reynolds); assay: Broth microdilution MIC, Pen. R SA Reynolds; settings: strain Reynolds, read-out: MIC90-100 Pen. R SA Reynolds
Source text: as §1, §2, §3, §4

| Compound | MIC [1] [µg/mL] | MIC [2] [µg/mL] | IC50 [3] [µg/mL] | MIC90 [1] [µg/mL] | MIC90 [2] [µg/mL] | IC50 [4] [µg/mL] | MIC90 [5] [µg/mL] | MIC90 [6] [µg/mL] | MIC90 [7] [µg/mL] | IC50 [8] [µg/mL] | MIC90 [9] [µg/mL] | MIC90 [10] [µg/mL] | MIC90 [11] [µg/mL] |
| --- | --- | --- | --- | --- | --- | --- | --- | --- | --- | --- | --- | --- | --- |
| CC(C)N1C[C@@H](COS(=O)(=O)c2ccc([N+](=O)[O-])cc2)OC1=O [Compound 253] |  | 15.6 (≈ 45.3 µM) | 10 (≈ 29 µM) | 250 (≈ 726 µM) | 8 to 16 (≈ 23.2 to 46.5 µM) | 7 (≈ 20.3 µM) | > 256 | 256 (≈ 743 µM) | 256 (≈ 743 µM) | 30 (≈ 87.1 µM) | > 256 |  |  |
| CN(C)C(=O)/C=C/N1C[C@@H](COC(=O)c2csc(-c3ccccc3)n2)OC1=O [Compound 1631] | 16 (≈ 39.9 µM) | 16 (≈ 39.9 µM) |  |  |  |  |  |  |  |  |  |  |  |
| CCN1C[C@@H](COS(=O)(=O)c2ccc(Cl)c3nonc23)OC1=O [Compound 1196] | 128 (≈ 354 µM) | 256 (≈ 708 µM) |  |  |  |  |  |  |  |  |  |  |  |
| CCC#CCN1CC(COS(=O)(=O)c2ccc(Cl)c3nonc23)OC1=O (stereo not drawn) [Compound 276] | 250 (≈ 625 µM) | 125 (≈ 313 µM) |  |  |  |  |  |  |  |  |  |  |  |
| CC(=O)/C=C/N1CC(COSc2ccc([N+](=O)[O-])cc2)OC1=O (stereo not drawn) [Compound 2023] | 32 (≈ 94.6 µM) | 64 (≈ 189 µM) |  |  |  |  |  |  |  |  |  |  |  |
| CC(C)N1C[C@@H](CNSc2ccc([N+](=O)[O-])cc2)OC1=O [Compound 1705] |  |  | 0.08 (≈ 0.257 µM) | 4 (≈ 12.8 µM) | 2 (≈ 6.42 µM) | 0.5 (≈ 1.61 µM) | 4 (≈ 12.8 µM) | 3 (≈ 9.64 µM) | 2 (≈ 6.42 µM) | 5 (≈ 16.1 µM) | 8 (≈ 25.7 µM) | 4 (≈ 12.8 µM) | 32 (≈ 103 µM) |
| CCN1C[C@H](CNSc2ccc([N+](=O)[O-])cc2)OC1=O [Compound 1715] |  |  | 0.08 (≈ 0.269 µM) | 4 (≈ 13.5 µM) | 2 (≈ 6.73 µM) | 0.7 (≈ 2.35 µM) | 4 (≈ 13.5 µM) | 3 (≈ 10.1 µM) | 3 (≈ 10.1 µM) | 5 (≈ 16.8 µM) | 8 (≈ 26.9 µM) | 8 (≈ 26.9 µM) | 32 (≈ 108 µM) |

Now from value to compound:

| MIC [1] [µg/mL] | MIC [2] [µg/mL] | IC50 [3] [µg/mL] | MIC90 [1] [µg/mL] | MIC90 [2] [µg/mL] | IC50 [4] [µg/mL] | MIC90 [5] [µg/mL] | MIC90 [6] [µg/mL] | MIC90 [7] [µg/mL] | IC50 [8] [µg/mL] | MIC90 [9] [µg/mL] | MIC90 [10] [µg/mL] | MIC90 [11] [µg/mL] | Compound |
| --- | --- | --- | --- | --- | --- | --- | --- | --- | --- | --- | --- | --- | --- |
| 32 (≈ 72.8 µM) | 16 (≈ 36.4 µM) |  |  |  |  |  |  |  |  |  |  |  | O=C1OC(COSc2ccc([N+](=O)[O-])cc2)CN1Cc1ccc(Br)cc1 (stereo not drawn) [Compound 2019] |
| 8 (≈ 19.5 µM) | 32 (≈ 78.2 µM) |  |  |  |  |  |  |  |  |  |  |  | O=C1O[C@@H](COc2ccc3c4c2CCCN4CCC3)CN1c1ccc([N+](=O)[O-])cc1 [Compound 1965] |
|  | 32 (≈ 82.6 µM) | 0.9 (≈ 2.32 µM) | 250 (≈ 645 µM) | 16 to 32 (≈ 41.3 to 82.6 µM) | 20 (≈ 51.6 µM) | 100 (≈ 258 µM) | 256 (≈ 661 µM) | 256 (≈ 661 µM) | 20 (≈ 51.6 µM) | > 256 |  |  | CN(C)C(=O)CN1C[C@@H](COS(=O)(=O)c2ccc([N+](=O)[O-])cc2)OC1=O [Compound 1021] |
